We go through 41 molecules from ChEMBL document CHEMBL4680122, “Design, synthesis and biological evaluation of new Axl kinase inhibitors containing 1,3,4-oxadiazole acetamide moiety as novel linker” (Eur J Med Chem, 2020).

In general, IC50 refers to the concentration that gives 50% inhibition. A higher IC50 goes with weaker potency in that assay.

The subject of assay [1] is A549. The assay is described as follows: cells. The note with it: Homo sapiens, A549, 72 h.
Description: Antiproliferative activity against human A549 cells measured after 72 hrs by MTT assay
Assay [2] deals with HT-29. The assay is described as follows: Antiproliferative activity against human HT-29 cells measured after 72 hrs by MTT assay. The note with it: HT-29, 72 h. (In general: Tetrazolium assays rely on reduction of a dye to a coloured formazan, in cell work by metabolically active cells.)
For assay [3], the system named is PC-3. The assay is described as follows: cells. The note with it: Homo sapiens, PC-3, 72 h.
Description: Antiproliferative activity against human PC-3 cells measured after 72 hrs by MTT assay
The subject of assay [4] is MCF7. Kind of assay: Antiproliferative activity against human MCF7 cells measured after 72 hrs by MTT assay. Type of assay: functional, cell-based. The note with it: MCF7, 72 h.

As to `COc1cc2c(Oc3ccc(NC(=O)Cc4ncc(-c5ccc(F)cc5)o4)cc3F)ccnc2cc1OCCCN1CCN(C)CC1`, the figures for the concentration for half-maximal inhibition (IC50) in assay [1], in assay [2] and in assay [3] were 254 nM, 2520 nM and 570 nM, respectively.

As to `COc1cc2nccc(Oc3ccc(NC(=O)C4(C(=O)Nc5ccc(F)cc5)CC4)cc3)c2cc1OC` [CABOZANTINIB], the half-inhibitory concentration (IC50) in assay [1] was determined as 3750 nM; in assay [2], 4560 nM; in assay [3], 8250 nM.

`COc1cc2c(Oc3ccc(NC(=O)C(C)c4nnc(-c5ccc(F)cc5)o4)cc3F)ccnc2cc1OCCCN1CCOCC1` (stereo not given): the concentration for half-maximal inhibition (IC50) is 52 nM in assay [1], 2540 nM in assay [2], 1050 nM in assay [4] and 1180 nM in assay [3].

Regarding `COc1cc2c(Oc3ccc(NC(=O)Cc4nnc(-c5ccc(F)cc5)o4)cc3F)ccnc2cc1OCCCN1CCOCC1`, the results for the IC50 in assay [1], in assay [2] and in assay [3] were 103 nM, 4300 nM and 680 nM, respectively.

For the molecule `COc1cc2c(Oc3ccc(NC(=O)C(C)(C)c4nnc(-c5ccc(F)cc5)o4)cc3F)ccnc2cc1OCCCN1CCCC1`, the IC50 in assay [1] was 263 nM; in assay [2] it was 1030 nM; in assay [3] it was 1050 nM.

Turning to `COc1cc2nccc(Oc3ccc(NC(=O)c4cc(-c5ccc(F)cc5)on4)cc3)c2cc1OC`, the values for the IC50 in assay [1], in assay [2] and in assay [3] were 40400 nM, above 100000 nM and 29400 nM, respectively.

With `COc1cc2c(Oc3ccc(NC(=O)Cc4nnc(-c5ccc(Cl)cc5)o4)cc3F)ccnc2cc1OCCCN1CCC(C)CC1`, the IC50 in assay [1] stood at 630 nM; in assay [2] it was 2460 nM; in assay [3], 360 nM.

Take `COc1cc2c(Oc3ccc(NC(=O)Cc4ncc(-c5ccc(F)cc5)o4)cc3F)ccnc2cc1OCCCN1CCCCC1`: the IC50 is 1040 nM in assay [1], 1040 nM in assay [2] and 530 nM in assay [3].

`COc1cc2c(Oc3ccc(NC(=O)Cc4ncc(-c5ccc(F)cc5)o4)cc3F)ccnc2cc1OCCCN1CCC(C)CC1`: the IC50 worked out at 105 nM in assay [1], 109 nM in assay [2] and 540 nM in assay [3].

Regarding `COc1cc2c(Oc3ccc(NC(=O)C(C)(C)c4nnc(-c5ccc(F)cc5)o4)cc3F)ccnc2cc1OCCCN1CCC(C)CC1`, the IC50 amounted to 420 nM in assay [1], 648 nM in assay [2], 370 nM in assay [4] and 1490 nM in assay [3].

Turning to `COc1cc2c(Oc3ccc(NC(=O)Cc4nnc(-c5ccc(F)cc5)o4)cc3F)ccnc2cc1OCCCN1CCN(C)CC1`, the IC50 in assay [1] stood at 71 nM; in assay [2], 3480 nM; in assay [3], 410 nM.

Turning to `COc1cc2c(Oc3ccc(NC(=O)Cc4nnc(-c5ccc(Br)cc5)o4)cc3F)ccnc2cc1OCCCN1CCC(C)CC1`, the IC50 in assay [1] stood at 102 nM; in assay [2], 583 nM; in assay [3], 680 nM.

Consider `COc1cc2c(Oc3ccc(NC(=O)Cc4nnc(-c5ccc(F)cc5)o4)cc3F)ccnc2cc1OCCCN1CCCC1`, for which the concentration for half-maximal inhibition (IC50) is 91 nM in assay [1], 2370 nM in assay [2] and 210 nM in assay [3].

Consider `COc1cc2c(Oc3ccc(NC(=O)C(C)(C)c4nnc(-c5ccc(F)cc5)o4)cc3F)ccnc2cc1OCCCN1CCN(C)CC1`, for which the IC50 was determined as 597 nM in assay [1], 1080 nM in assay [2], 2480 nM in assay [4] and 1900 nM in assay [3].

`CCC(C(=O)Nc1ccc(Oc2ccnc3cc(OCCCN4CCN(C)CC4)c(OC)cc23)c(F)c1)c1nnc(-c2ccc(F)cc2)o1` (stereo not given): the IC50 in assay [1] was found to be 38 nM; in assay [2] it was 1540 nM; in assay [4], 2220 nM; in assay [3] it was 970 nM.

Turning to `COc1cc2c(Oc3ccc(NC(=O)C4(c5nnc(-c6ccc(F)cc6)o5)CC4)cc3F)ccnc2cc1OCCCN1CCN(C)CC1`, the IC50 was determined as 143 nM in assay [1], 1050 nM in assay [2], 2610 nM in assay [4] and 1670 nM in assay [3].

Take `COc1cc2c(Oc3ccc(NC(=O)C(C)(C)c4nnc(-c5ccc(F)cc5)o4)cc3F)ccnc2cc1OCCCN1CCOCC1`: the IC50 in assay [1] was 275 nM; in assay [2], 2480 nM; in assay [4] it was 1600 nM; in assay [3], 1790 nM.

With `CCC(C(=O)Nc1ccc(Oc2ccnc3cc(OCCCN4CCCC4)c(OC)cc23)c(F)c1)c1nnc(-c2ccc(F)cc2)o1` (stereo not given), the IC50 in assay [1] turned out to be 78 nM; in assay [2], 570 nM; in assay [4], 1040 nM; in assay [3], 1420 nM.

For `COc1cc2c(Oc3ccc(NC(=O)c4nc(-c5ccc(F)cc5)no4)cc3)ccnc2cc1OCCCN1CCC(C)CC1`, the results for the IC50 in assay [1], in assay [2] and in assay [3] were 870 nM, 6380 nM and 1040 nM, respectively.

Consider `COc1cc2c(Oc3ccc(NC(=O)Cc4ncc(-c5ccc(F)cc5)o4)cc3F)ccnc2cc1OCCCN1CCCC1`, for which the concentration for half-maximal inhibition (IC50) in assay [1] turned out to be 178 nM; in assay [2], 4170 nM; in assay [3], 340 nM.

With `COc1cc2c(Oc3ccc(NC(=O)C4(c5nnc(-c6ccc(F)cc6)o5)CC4)cc3F)ccnc2cc1OCCCN1CCCC1`, the IC50 in assay [1] was 150 nM; in assay [2], 779 nM; in assay [4] it was 310 nM; in assay [3] it was 2340 nM.

On to `COc1cc2c(Oc3ccc(NC(=O)C(C)c4nnc(-c5ccc(F)cc5)o4)cc3F)ccnc2cc1OCCCN1CCCC1` (stereo not given), for which the IC50 in assay [1] was found to be 76 nM; in assay [2], 1270 nM; in assay [4] it was 2700 nM; in assay [3], 1080 nM.

With `COc1cc2c(Oc3ccc(NC(=O)C(C)(C)c4nnc(-c5ccc(F)cc5)o4)cc3F)ccnc2cc1OCCCN1CCCCC1`, the IC50 in assay [1] was determined as 215 nM; in assay [2], 871 nM; in assay [4], 470 nM; in assay [3] it was 1760 nM.

For `COc1cc2nccc(Oc3ccc(NC(=O)c4nnc(-c5ccc(F)cc5)o4)cc3)c2cc1OC`, the 50% inhibitory concentration (IC50) in assay [1] was 5140 nM; in assay [2], 52300 nM; in assay [3], above 100000 nM.

`COc1cc2c(Oc3ccc(NC(=O)Cc4ncc(-c5ccc(F)cc5)o4)cc3F)ccnc2cc1OCCCN1CCOCC1`: the IC50 in assay [1] turned out to be 596 nM; in assay [2] it was 13700 nM; in assay [3] it was 2410 nM.

Turning to `COc1cc2c(Oc3ccc(NC(=O)c4nnc(-c5ccc(F)cc5)o4)cc3)ccnc2cc1OCCCN1CCC(C)CC1`, the figures for the IC50 in assay [1], in assay [2] and in assay [3] were 2730 nM, 7890 nM and 3810 nM, respectively.

As for `COc1cc2c(Oc3ccc(NC(=O)Cc4nnc(-c5ccccc5)o4)cc3F)ccnc2cc1OCCCN1CCC(C)CC1`, the values for the IC50 in assay [1], in assay [2] and in assay [3] were 920 nM, 7810 nM and 4730 nM, respectively.

As to `COc1cc2c(Oc3ccc(NC(=O)Cc4nnc(-c5ccc(F)cc5)o4)cc3F)ccnc2cc1OCCCN1CCCCC1`, the IC50 in assay [1] was found to be 813 nM; in assay [2], 813 nM; in assay [3], 400 nM.

As to `CCC(C(=O)Nc1ccc(Oc2ccnc3cc(OCCCN4CCOCC4)c(OC)cc23)c(F)c1)c1nnc(-c2ccc(F)cc2)o1` (stereo not given), the IC50 came to 49 nM in assay [1], 2020 nM in assay [2], 2690 nM in assay [4] and 2530 nM in assay [3].

Regarding `CCC(C(=O)Nc1ccc(Oc2ccnc3cc(OCCCN4CCCCC4)c(OC)cc23)c(F)c1)c1nnc(-c2ccc(F)cc2)o1` (stereo not given), the IC50 came out at 92 nM in assay [1], 1080 nM in assay [2], 410 nM in assay [4] and 1470 nM in assay [3].

For `COc1cc2nccc(Oc3ccc(NC(=O)c4ncc(-c5ccc(F)cc5)o4)cc3)c2cc1OC`, the IC50 in assay [1] is 5590 nM; in assay [2], above 100000 nM; in assay [3], 21900 nM.

`COc1cc2c(Oc3ccc(NC(=O)C4(c5nnc(-c6ccc(F)cc6)o5)CC4)cc3F)ccnc2cc1OCCCN1CCOCC1`: the IC50 was 1660 nM in assay [1], 9330 nM in assay [2], above 100000 nM in assay [4] and 13000 nM in assay [3].

`COc1cc2c(Oc3ccc(NC(=O)C4(c5nnc(-c6ccc(F)cc6)o5)CC4)cc3F)ccnc2cc1OCCCN1CCC(C)CC1`: the IC50 in assay [1] came to 120 nM; in assay [2], 442 nM; in assay [4], 740 nM; in assay [3], 2180 nM.

With `COc1cc2c(Oc3ccc(NC(=O)Cc4nc(-c5ccc(F)cc5)no4)cc3F)ccnc2cc1OCCCN1CCC(C)CC1`, the half-inhibitory concentration (IC50) turned out to be 106 nM in assay [1], 1160 nM in assay [2] and 330 nM in assay [3].

Consider `CCC(C(=O)Nc1ccc(Oc2ccnc3cc(OCCCN4CCC(C)CC4)c(OC)cc23)c(F)c1)c1nnc(-c2ccc(F)cc2)o1` (stereo not given), for which the IC50 in assay [1] came out at 119 nM; in assay [2], 554 nM; in assay [4], 460 nM; in assay [3] it was 400 nM.

For `COc1cc2c(Oc3ccc(NC(=O)c4ncc(-c5ccc(F)cc5)o4)cc3)ccnc2cc1OCCCN1CCC(C)CC1`, the IC50 in assay [1] turned out to be 240 nM; in assay [2], 1890 nM; in assay [3], 720 nM.

As for `COc1cc2c(Oc3ccc(NC(=O)C(C)c4nnc(-c5ccc(F)cc5)o4)cc3F)ccnc2cc1OCCCN1CCN(C)CC1` (stereo not given), the IC50 in assay [1] was determined as 75 nM; in assay [2], 1960 nM; in assay [4], 1630 nM; in assay [3] it was 1700 nM.

Consider `COc1cc2nccc(Oc3ccc(NC(=O)c4nc(-c5ccc(F)cc5)no4)cc3)c2cc1OC`, for which the figures for the IC50 in assay [1], in assay [2] and in assay [3] were 10300 nM, 39700 nM and above 100000 nM, respectively.

For the molecule `COc1ccc(-c2nnc(CC(=O)Nc3ccc(Oc4ccnc5cc(OCCCN6CCC(C)CC6)c(OC)cc45)c(F)c3)o2)cc1`, the results for the IC50 in assay [1], in assay [2] and in assay [3] were 1560 nM, 7520 nM and 410 nM, respectively.

With `COc1cc2c(Oc3ccc(NC(=O)C(C)c4nnc(-c5ccc(F)cc5)o4)cc3F)ccnc2cc1OCCCN1CCCCC1` (stereo not given), the IC50 in assay [1] worked out at 86 nM; in assay [2], 1000 nM; in assay [4], 1040 nM; in assay [3] it was 1260 nM.

For `COc1cc2c(Oc3ccc(NC(=O)Cc4nnc(-c5ccc(F)cc5)o4)cc3F)ccnc2cc1OCCCN1CCC(C)CC1`, the IC50 in assay [1] was determined as 82 nM; in assay [2], 238 nM; in assay [3], 280 nM.
